From ChEMBL document CHEMBL5126589, “Drug design and DNA structural research inspired by the Neidle laboratory: DNA minor groove binding and transcription factor inhibition by thiophene diamidines” (Bioorg Med Chem, 2022)

Tests used:
[1] = Binding affinity to biotin labeled hairpin DNA 5'-GAATTC-3' (unknown origin) assessed as equilibrium dissociation constant by sensor chip immobilization based surface plasmon resonance analysis
[2] = Binding affinity to biotin labeled hairpin DNA 5'-GAATTC-3' (unknown origin) assessed as association constant by sensor chip immobilization based surface plasmon resonance analysis
[3] = Inhibition of PU.1 binding to biotin labeled lambdaB DNA (unknown origin) by sensor chip immobilization based surface plasmon resonance analysis
[4] = Binding affinity to biotin labeled hairpin DNA 5'-GAATTC-3' (unknown origin) assessed as dissociation rate constant by sensor chip immobilization based surface plasmon resonance analysis
[5] = Binding affinity to biotin labeled hairpin DNA 5'-GAATTC-3' (unknown origin) assessed as equilibrium binding constant by sensor chip immobilization based surface plasmon resonance analysis

Row | SMILES | Kd [1] | Ka [2] | IC50 [3] | Kd [4] | KA [5]
1 | N=C(N)c1ccc(-c2ccc(-c3cc4ccc(C(=N)N)cc4[nH]3)s2)cc1 | 6.5 nM | 4.5 10^5/M/s | 23 nM | 2.9 10^-3/s | –
2 | N=C(N)c1ccc(-c2ccc(-c3ccc(C(=N)N)cc3)o2)cc1 [FURAMIDINE] | 140 nM | – | – | – | –
3 | N=C(N)c1ccc(-c2ccc(-c3nc4ccc(C(=N)N)cc4[nH]3)s2)cc1 | 1.5 nM | 5.8 10^6/M/s | 9 nM | 8.9 10^-3/s | 6.6 10^8/M
